Laboratory results from article PMC8699473, “An Easily Expandable Multi-Drug LC-MS Assay for the Simultaneous Quantification of 57 Oral Antitumor Drugs in Human Plasma” (Cancers, 2021).

Columns and labels:
[1] = Freeze-thaw stability in spiked pooled human plasma; format: physicochemical
[2] = Autosampler stability of ready for injection samples; format: physicochemical, human
[3] = design: method as in supplement references [1-55] as printed per drug; conditions: minimum steady-state blood plasma concentration after multiple dose administration; ref supplement references [1-55] per drug; cited from earlier work
[4] = Long-term stability in spiked pooled human plasma
[5] = Short-term stability in spiked pooled human plasma (bench-top, 4 °C, 56 °C)

COc1cc(N2CCC(N3CCN(C)CC3)CC2)ccc1Nc1ncc(Cl)c(Nc2ccccc2P(C)(C)=O)n1 [Brigatinib]
Freeze-Thaw Accuracy [%] ([1]; validation standard 2xLLOV): 98.7% | Freeze-Thaw Accuracy [%] ([1]; validation standard LLOV): 111.4% | Freeze-Thaw Accuracy [%] ([1]; validation standard MOV): 95.5% | Freeze-Thaw Accuracy [%] ([1]; validation standard ULOV): 97.9% | Autosampler (24h, 4°C) Accuracy [%] ([2]; validation standard 2xLLOV): 96.4% | Autosampler (72h, 4°C) Accuracy [%] ([2]; validation standard 2xLLOV): 91.9% | Autosampler (24h, 4°C) Accuracy [%] ([2]; validation standard LLOV): 90.7% | Autosampler (72h, 4°C) Accuracy [%] ([2]; validation standard LLOV): 85.3% | Autosampler (24h, 4°C) Accuracy [%] ([2]; validation standard MOV): 104.4% | Autosampler (72h, 4°C) Accuracy [%] ([2]; validation standard MOV): 95.5% | Autosampler (24h, 4°C) Accuracy [%] ([2]; validation standard ULOV): 96.1% | Autosampler (72h, 4°C) Accuracy [%] ([2]; validation standard ULOV): 96.6% | cmin [3]: 520 ng/mL | Long-term stability, 1 month, -20°C Accuracy [%] ([4]; validation standard 2xLLOV): 92.4% | Long-term stability, 1 month, -80°C Accuracy [%] ([4]; validation standard 2xLLOV): 92.1% | Long-term stability, 2 month, -20°C Accuracy [%] ([4]; validation standard 2xLLOV): 105.4% | Long-term stability, 2 month, -80°C Accuracy [%] ([4]; validation standard 2xLLOV): 110.2% | Long-term stability, 3 month, -20°C Accuracy [%] ([4]; validation standard 2xLLOV): 96.3% | Long-term stability, 3 month, -80°C Accuracy [%] ([4]; validation standard 2xLLOV): 99.0% | Long-term stability, 6 weeks, 4°C, without daylight Accuracy [%] ([4]; validation standard 2xLLOV): 94.2% | Long-term stability, 1 month, -20°C Accuracy [%] ([4]; validation standard LLOV): 93.6% | Long-term stability, 1 month, -80°C Accuracy [%] ([4]; validation standard LLOV): 88.3% | Long-term stability, 2 month, -20°C Accuracy [%] ([4]; validation standard LLOV): 100.6% | Long-term stability, 2 month, -80°C Accuracy [%] ([4]; validation standard LLOV): 96.7% | Long-term stability, 3 month, -20°C Accuracy [%] ([4]; validation standard LLOV): 92.1% | Long-term stability, 3 month, -80°C Accuracy [%] ([4]; validation standard LLOV): 93.0% | Long-term stability, 6 weeks, 4°C, without daylight Accuracy [%] ([4]; validation standard LLOV): 89.6% | Long-term stability, 1 month, -20°C Accuracy [%] ([4]; validation standard MOV): 100.8% | Long-term stability, 1 month, -80°C Accuracy [%] ([4]; validation standard MOV): 96.9% | Long-term stability, 2 month, -20°C Accuracy [%] ([4]; validation standard MOV): 108.5% | Long-term stability, 2 month, -80°C Accuracy [%] ([4]; validation standard MOV): 107.5% | Long-term stability, 3 month, -20°C Accuracy [%] ([4]; validation standard MOV): 105.5% | Long-term stability, 3 month, -80°C Accuracy [%] ([4]; validation standard MOV): 106.8% | Long-term stability, 6 weeks, 4°C, without daylight Accuracy [%] ([4]; validation standard MOV): 104.7% | Long-term stability, 1 month, -20°C Accuracy [%] ([4]; validation standard ULOV): 100.4% | Long-term stability, 1 month, -80°C Accuracy [%] ([4]; validation standard ULOV): 95.0% | Long-term stability, 2 month, -20°C Accuracy [%] ([4]; validation standard ULOV): 105.8% | Long-term stability, 2 month, -80°C Accuracy [%] ([4]; validation standard ULOV): 108.0% | Long-term stability, 3 month, -20°C Accuracy [%] ([4]; validation standard ULOV): 102.6% | Long-term stability, 3 month, -80°C Accuracy [%] ([4]; validation standard ULOV): 98.7% | Long-term stability, 6 weeks, 4°C, without daylight Accuracy [%] ([4]; validation standard ULOV): 98.6% | Short-time stability (1h, 56°C) Accuracy [%] ([5]; validation standard 2xLLOV): 18.2% | Short-time stability (24h, 4°C, without daylight) Accuracy [%] ([5]; validation standard 2xLLOV): 102.8% | Short-time stability (24h, RT, with daylight) Accuracy [%] ([5]; validation standard 2xLLOV): 76.4% | Short-time stability (24h, RT, without daylight) Accuracy [%] ([5]; validation standard 2xLLOV): 74.1% | Short-time stability (1h, 56°C) Accuracy [%] ([5]; validation standard LLOV): 7.8% | Short-time stability (24h, 4°C, without daylight) Accuracy [%] ([5]; validation standard LLOV): 95.0% | Short-time stability (24h, RT, with daylight) Accuracy [%] ([5]; validation standard LLOV): 55.6% | Short-time stability (24h, RT, without daylight) Accuracy [%] ([5]; validation standard LLOV): 55.1% | Short-time stability (1h, 56°C) Accuracy [%] ([5]; validation standard MOV): 38.5% | Short-time stability (24h, 4°C, without daylight) Accuracy [%] ([5]; validation standard MOV): 104.2% | Short-time stability (24h, RT, with daylight) Accuracy [%] ([5]; validation standard MOV): 85.3% | Short-time stability (24h, RT, without daylight) Accuracy [%] ([5]; validation standard MOV): 93.4% | Short-time stability (1h, 56°C) Accuracy [%] ([5]; validation standard ULOV): 35.7% | Short-time stability (24h, 4°C, without daylight) Accuracy [%] ([5]; validation standard ULOV): 93.7% | Short-time stability (24h, RT, with daylight) Accuracy [%] ([5]; validation standard ULOV): 91.3% | Short-time stability (24h, RT, without daylight) Accuracy [%] ([5]; validation standard ULOV): 90.3%

Cc1cc(Nc2ncc(Cl)c(Nc3ccccc3S(=O)(=O)C(C)C)n2)c(OC(C)C)cc1C1CCNCC1 [Ceritinib]
Freeze-Thaw Accuracy [%] ([1]; validation standard 2xLLOV): 96.9% | Freeze-Thaw Accuracy [%] ([1]; validation standard LLOV): 99.9% | Freeze-Thaw Accuracy [%] ([1]; validation standard MOV): 97.6% | Freeze-Thaw Accuracy [%] ([1]; validation standard ULOV): 97.5% | Autosampler (24h, 4°C) Accuracy [%] ([2]; validation standard 2xLLOV): 95.1% | Autosampler (72h, 4°C) Accuracy [%] ([2]; validation standard 2xLLOV): 100.1% | Autosampler (24h, 4°C) Accuracy [%] ([2]; validation standard LLOV): 97.1% | Autosampler (72h, 4°C) Accuracy [%] ([2]; validation standard LLOV): 98.1% | Autosampler (24h, 4°C) Accuracy [%] ([2]; validation standard MOV): 100.8% | Autosampler (72h, 4°C) Accuracy [%] ([2]; validation standard MOV): 103.5% | Autosampler (24h, 4°C) Accuracy [%] ([2]; validation standard ULOV): 101.3% | Autosampler (72h, 4°C) Accuracy [%] ([2]; validation standard ULOV): 106.5% | cmin [3]: 871 ng/mL | Long-term stability, 1 month, -20°C Accuracy [%] ([4]; validation standard 2xLLOV): 94.3% | Long-term stability, 1 month, -80°C Accuracy [%] ([4]; validation standard 2xLLOV): 89.5% | Long-term stability, 2 month, -20°C Accuracy [%] ([4]; validation standard 2xLLOV): 94.4% | Long-term stability, 2 month, -80°C Accuracy [%] ([4]; validation standard 2xLLOV): 96.4% | Long-term stability, 3 month, -20°C Accuracy [%] ([4]; validation standard 2xLLOV): 91.8% | Long-term stability, 3 month, -80°C Accuracy [%] ([4]; validation standard 2xLLOV): 93.4% | Long-term stability, 6 weeks, 4°C, without daylight Accuracy [%] ([4]; validation standard 2xLLOV): 77.8% | Long-term stability, 1 month, -20°C Accuracy [%] ([4]; validation standard LLOV): 101.5% | Long-term stability, 1 month, -80°C Accuracy [%] ([4]; validation standard LLOV): 96.1% | Long-term stability, 2 month, -20°C Accuracy [%] ([4]; validation standard LLOV): 99.7% | Long-term stability, 2 month, -80°C Accuracy [%] ([4]; validation standard LLOV): 103.7% | Long-term stability, 3 month, -20°C Accuracy [%] ([4]; validation standard LLOV): 96.9% | Long-term stability, 3 month, -80°C Accuracy [%] ([4]; validation standard LLOV): 100.3% | Long-term stability, 6 weeks, 4°C, without daylight Accuracy [%] ([4]; validation standard LLOV): 78.9% | Long-term stability, 1 month, -20°C Accuracy [%] ([4]; validation standard MOV): 93.3% | Long-term stability, 1 month, -80°C Accuracy [%] ([4]; validation standard MOV): 93.7% | Long-term stability, 2 month, -20°C Accuracy [%] ([4]; validation standard MOV): 94.6% | Long-term stability, 2 month, -80°C Accuracy [%] ([4]; validation standard MOV): 95.5% | Long-term stability, 3 month, -20°C Accuracy [%] ([4]; validation standard MOV): 94.1% | Long-term stability, 3 month, -80°C Accuracy [%] ([4]; validation standard MOV): 95.7% | Long-term stability, 6 weeks, 4°C, without daylight Accuracy [%] ([4]; validation standard MOV): 104.9% | Long-term stability, 1 month, -20°C Accuracy [%] ([4]; validation standard ULOV): 97.3% | Long-term stability, 1 month, -80°C Accuracy [%] ([4]; validation standard ULOV): 94.0% | Long-term stability, 2 month, -20°C Accuracy [%] ([4]; validation standard ULOV): 99.1% | Long-term stability, 2 month, -80°C Accuracy [%] ([4]; validation standard ULOV): 100.5% | Long-term stability, 3 month, -20°C Accuracy [%] ([4]; validation standard ULOV): 101.8% | Long-term stability, 3 month, -80°C Accuracy [%] ([4]; validation standard ULOV): 100.0% | Long-term stability, 6 weeks, 4°C, without daylight Accuracy [%] ([4]; validation standard ULOV): 97.9% | Short-time stability (1h, 56°C) Accuracy [%] ([5]; validation standard 2xLLOV): 39.7% | Short-time stability (24h, 4°C, without daylight) Accuracy [%] ([5]; validation standard 2xLLOV): 95.5% | Short-time stability (24h, RT, with daylight) Accuracy [%] ([5]; validation standard 2xLLOV): 66.9% | Short-time stability (24h, RT, without daylight) Accuracy [%] ([5]; validation standard 2xLLOV): 72.2% | Short-time stability (1h, 56°C) Accuracy [%] ([5]; validation standard LLOV): 42.5% | Short-time stability (24h, 4°C, without daylight) Accuracy [%] ([5]; validation standard LLOV): 102.1% | Short-time stability (24h, RT, with daylight) Accuracy [%] ([5]; validation standard LLOV): 70.9% | Short-time stability (24h, RT, without daylight) Accuracy [%] ([5]; validation standard LLOV): 77.7% | Short-time stability (1h, 56°C) Accuracy [%] ([5]; validation standard MOV): 34.6% | Short-time stability (24h, 4°C, without daylight) Accuracy [%] ([5]; validation standard MOV): 93.9% | Short-time stability (24h, RT, with daylight) Accuracy [%] ([5]; validation standard MOV): 84.1% | Short-time stability (24h, RT, without daylight) Accuracy [%] ([5]; validation standard MOV): 92.2% | Short-time stability (1h, 56°C) Accuracy [%] ([5]; validation standard ULOV): 32.0% | Short-time stability (24h, 4°C, without daylight) Accuracy [%] ([5]; validation standard ULOV): 92.7% | Short-time stability (24h, RT, with daylight) Accuracy [%] ([5]; validation standard ULOV): 91.8% | Short-time stability (24h, RT, without daylight) Accuracy [%] ([5]; validation standard ULOV): 96.2%
